Test results reported in patent publication US20200222564A1, “Compound Amphiphilic Peptide Nanomicelle, Preparation and Use Thereof” (Tianjin University, priority 2019, published 2020).

Test system: CNE-2Z cells
Assay: CCK-8 cytotoxicity in CNE-2Z cells
Type: cell-based
Conditions: 0-100 μg/mL, 24 h in the dark
Procedure: First of all, the designed concentration (0, 20, 40, 60, 80 and 100 μg/mL) solution of nanomicelle and rose bengal were prepared with 1640 medium. CNE-2Z cells were seeded into a 96-well player at a density of 2×10^4 cells per well. Each sample with a certain concentration was added to 5 wells. The cytotoxicity of the pure rose bengal and the nanomicelle solution at different concentrations was compared. After culturing for 48 hours, the cells were grown to 80%, and the medium containing different volumes of nanomicelle and rose bengal solution was added instead of the original medium according to the experimental group setting. After an additional incubation for 24 h at 37° C. in the dark, fresh medium (100 μL) together with CCK-8 (10 μL) was added followed by […] on a microplate reader at a wavelength of 450 nm. Cell viability was calculated according to the formula, with the maximum and minimum of OD values excluded:
Cell Viability=average of (OD−ODblk)/average of (OD0−ODblk)×100%

With `O=C([O-])c1c(Cl)c(Cl)c(Cl)c(Cl)c1-c1c2cc(I)c(=O)c(I)c-2oc2c(I)c([O-])c(I)cc12.[Na+].[Na+]` [Rose Bengal] the “toxicity to CNE-2Z cells” value was “less toxic”.
